Test results published in publication PMC9320749, “Synthesis, Molecular Docking Study, and Cytotoxic Activity against MCF Cells of New Thiazole–Thiophene Scaffolds” (Molecules, 2022).
Like-named read-outs stand apart in the source and are kept apart here.

Experiments:
in vitro = conditions: rhesus monkey
MCF-7 [1] = assay: cells; conditions: Homo sapiens, MCF7, 72 h, read-out: IC50 (μM) MCF-7, MCF-7 breast carcinoma cells; mean of three independent experiments; 72 h incubation
Procedure: (§1) The results were used to plot a dose–response curve, from which the concentrations of the tested samples required to kill half of the cell population (IC50) were determined. In addition, cytotoxic activities were expressed as the mean IC50 calculated from three independent experiments.
(§2) The cytotoxic potentials of the newly synthesized compounds was carried out at the Regional Center for Mycology and Biotechnology at Al-Azhar University, Cairo, Egypt. Cells were purchased from the Egyptian Holding Company for Biological Products and Vaccines (VACSERA, Giza, Egypt) and kept in a tissue culture unit. Cells were grown in Roswell Park Memorial Institute (RPMI)-1640 medium supplemented with 10% heat-inactivated fetal bovine serum (FBS), 50 units/mL penicillin, and 50 mg/mL streptomycin, and maintained in a humidified atmosphere containing 5% CO2 [11, 25]. Cells were maintained as monolayer cultures using serial subculture. Cell culture reagents were obtained from Lonza (Basel, Switzerland). The anticancer activities of the rest of the compounds were evaluated in MCF-7 (breast cancer) cells. In addition, the sulforhodamine B (SRB) assay method, as described previously in [39, 40], was used to determine cytotoxicity. Exponentially growing cells were collected using 0.25% trypsin–EDTA and seeded in 96-well plates at 1000–2000 cells/well in RBMI-1640 supplemented medium. After 24 h, cells were incubated for 72 h with various concentrations of the compounds tested. Following 72 h of incubation, the cells were fixed with 10% trichloroacetic acid for 1 h at 4 °C. Wells were stained for 10 min at room temperature with 0.4% sulforhodamine B (SRBC) dissolved in 1% acetic acid. Plates were air-dried for 24 h, and the dye was solubilized with Tris–HCl for 5 min on a shaker at 1600 rpm. The optical density (OD) of each well was measured spectrophotometrically at 564 nm using an ELISA microplate reader (ChroMate-4300, Palm City, FL, USA). IC50 values were calculated using a Boltzmann sigmoidal concentration–response curve using non-linear regression fitting models (Graph Pad, Prism Version 9, GraphPad Software, San Diego, CA, USA).

MCF-7 [2] = conditions: for IC50: read-out: IC50 (μM) MCF-7, MCF-7 breast carcinoma cells, mean of three independent experiments, 72 h incubation
Procedure: as §1, §2

Row | IC50 (MCF-7 [1]) | IC50 (MCF-7 [2]) | melting point | Structure (SMILES) | CC50 at 72 h (in vitro) | SI Values (CC50/IC50) (MCF-7 [2])
1 | 10.2 ± 0.8 µM | – | – | C/C(=N\N=c1/sc(/N=N/c2ccc(C)cc2)c(C)n1N)c1cccs1 [4b] | 176 ± 18.2 µM | –
2 | > 38 µM | 38.2 ± 1.4 µM | 180 to 182 °C | C/C(=N\N=c1/scc(-c2ccc(Cl)cc2)n1N)c1cccs1 [11c] | – | –
3 | 11.5 ± 0.8 µM | – | – | CC(=O)c1sc(=NN=C(C)c2cccs2)n(N)c1C [13a, 1-[3-Amino-4-methyl-2-((1-(thiophen-2-yl)ethylidene)hydrazineylidene]-2,3-dihydrothiazol-5-yl)ethan-1-one] | 163 ± 19.1 µM | 14.14
4 | > 38 µM | 54.8 ± 1.6 µM | 194 to 196 °C | C/C(=N\N=c1/scc(-c2ccc([N+](=O)[O-])cc2)n1N)c1cccs1 [11d] | – | –
5 | 19.8 ± 0.9 µM | – | 227 to 229 °C | C/C(=N\N=c1/sc(/N=N/c2ccc(Cl)cc2Cl)c(C)n1N)c1cccs1 [4d] | – | –
6 | 16.3 ± 1 µM | – | – | C/C(=N\N=c1/sc(/N=N/c2ccccc2)c(C)n1N)c1cccs1 [4a] | 183 ± 21.3 µM | 11.23
7 | 17.9 ± 0.8 µM | – | – | C/C(=N\N=c1/scc(-c2ccc(C)cc2)n1N)c1cccs1 [11b] | 231 ± 25 µM | 12.93
8 | 16.3 ± 1.4 µM | – | – | CCOC(=O)c1s/c(=N\N=C(/C)c2cccs2)n(N)c1C [13b] | 135 ± 9.58 µM | 8.29
9 | 23.7 ± 1.6 µM | – | 177 to 179 °C | CC(=NN=C1SC(=NNc2ccc(Cl)cc2)C(=O)N1N)c1cccs1 [8b, 3-Amino-5-(2-(4-chlorophenyl)hydrazineylidene)-2-[(1-(thiophen-2-yl)ethylidene) hydrazineylidene]thiazolidin-4-one] | – | –
10 | 19.7 ± 1.3 µM | – | 205 to 207 °C | C/C(=N\N=c1/sc(/N=N/c2ccc(Cl)cc2)c(C)n1N)c1cccs1 [4c] | – | –
11 | 21 ± 0.7 µM | – | 166 to 168 °C | C/C(=N\N=c1/scc(-c2ccccc2)n1N)c1cccs1 [11a] | – | –
12 | 13.6 ± 0.9 µM | – | – | CC(=NN=C1SC(=NNc2ccc(C)cc2)C(=O)N1N)c1cccs1 [8a, 3-Amino-2-[(1-(thiophen-2-yl)ethylidene)hydrazineylidene]-5-(2-(p-tolyl)hydrazineylidene) thiazolidin-4-one] | 149 ± 15.9 µM | 10.99

Row | Structure (SMILES) | IC50 (MCF-7 [1]) | IC50 (MCF-7 [2]) | melting point | CC50 at 72 h (in vitro) | SI Values (CC50/IC50) (MCF-7 [2])
13 | N.N.[Cl][Pt][Cl] [Cisplatin, cisplatin, reference compound] | – | 13.3 ± 0.61 µM | – | – | –
